Test results: patent US6596757B1, “Cytotoxic agents comprising polyethylene glycol-containing taxanes and their therapeutic use” (Immunogen Inc., priority 2002, dated 2003)

What was measured:
[1] = system: MCF-7 cells; experiment: In vitro cytotoxicity, MCF-7 cells, 72 hour exposure, surviving fraction by plating efficiency; assay type: cell-based; conditions: MCF-7 (human breast tumor) cells, read-out: IC50 value towards MCF-7 cells
Procedure: (§1) Disulfide-containing and thiol-containing PEGylated taxane drugs of the invention can be evaluated for their ability to suppress proliferation of various unwanted cell lines in vitro. For example, cell lines such as the human lung carcinoma line A549, the human breast tumor line MCF-7, and the Burkitt's lymphoma line Namalwa can easily be used for the assessment of cytotoxicity of these compounds. Cells to be evaluated can be exposed to the compounds for 72 hours and the surviving fractions of cells measured in direct assays by known methods. IC50 values can then be calculated from the results of the assays.
The sulfide, disulfide, and sulfhydryl containing PEGylated taxane drugs of the invention can be evaluated for their ability to suppress proliferation of various human tumor cell lines in vitro. Two adherent cell lines A549(human lung carcinoma) and MCF-7 (human breast tumor) and the non-adherent cell line, Namalwa (Burkitt's lymphoma) are used for the assessment of cytotoxicity of these compounds. Cells are exposed to the compounds for 72 hours and the surviving fractions of cells are measured in direct assays.

[2] = system: A-431 cells; experiment: In vitro cytotoxicity, A-431 cells; assay type: cell-based; conditions: read-out: IC50 towards A-431 cells
Procedure: as §1
Cytotoxicity of the PEGylated taxanes and their antibody conjugates to non-adherent cell lines such as Namalwa and HL-60 can be measured by back-extrapolation of cell proliferation curves as described in Goldmacher et al, 135 J. Immunol. 3648-3651 (1985). Cytotoxicity of these compounds to adherent cell lines such as SKBR3 and A431 can be determined by clonogenic assays as described in Goldmacher et al, 102 J. Cell Biol. 1312-1319 (1986).

SMILES | IC50 [1] [nM] | IC50 [2] [nM]
COc1ccc(OC)c(C(=O)OC2C3C4(OC(C)=O)COC4CC(OC(=O)CCOCCOCCOCCOCCSSC)C3(C)C(=O)C(O)C3=C(C)C(OC(=O)C(O)C(C=C(C)C)NC(=O)OC(C)(C)C)CC2(O)C3(C)C)c1 (stereo not drawn) [taxoid 20, 3′-Dephenyl-3′-(isobutenyl)-2-debenzoyl-2-(2,5-dimethoxybenzoyl)-7-(15-methyldithio-4,7,10,13-tetraoxapentadecanoyl)-docetaxel] | 0.32 | 
COc1ccc(OC)c(C(=O)OC2C3C4(OC(C)=O)COC4CC(O)C3(C)C(=O)C(OC(=O)CCOCCOCCOCCOCCSSC)C3=C(C)C(OC(=O)C(O)C(C=C(C)C)NC(=O)OC(C)(C)C)CC2(O)C3(C)C)c1 (stereo not drawn) [taxoid 17, 3′-Dephenyl-3′-(isobutenyl)-2-debenzoyl-2-(2,5-dimethoxybenzoyl)-10-(15-methyldithio-4,7,10,13-tetraoxapentadecanoyl)-docetaxel] | 0.063 | 0.33
